Converted amounts (≈) assume the structure as drawn.
Tests used:
[1] = Metal chelating activity assessed as compound-Fe(III) complex formation by measuring RhB degradation in MgO2/Fe(III) system measured within 30 mins by UV-Visible spectrophotometry
Pseudomonas aeruginosa [2] = assay: Antibacterial activity against Pseudomonas aeruginosa ATCC 10145 assessed as inhibition of bacterial growth incubated for 24 hrs by broth microdilution method; format: functional
Staphylococcus aureus [3] = assay: Bactericidal activity against Staphylococcus aureus CECT 976 assessed as bacterial killing incubated in MHB for 24 hrs and measured following culturing on agar plate for 24 hrs; format: functional; settings: time 48 hrs
Pseudomonas aeruginosa [4] = assay: Bactericidal activity against Pseudomonas aeruginosa ATCC 10145 assessed as bacterial killing incubated in MHB for 24 hrs and measured following culturing on agar plate for 24 hrs; format: functional; settings: time 48 hrs
Staphylococcus aureus [5] = assay: Antibacterial activity against Staphylococcus aureus CECT 976 assessed as inhibition of bacterial growth incubated for 24 hrs by broth microdilution method; format: functional

Row | Compound | Activity [1] [%] | MIC (Pseudomonas aeruginosa [2]) [µg/mL] | MBC (Staphylococcus aureus [3]) [µg/mL] | MBC (Pseudomonas aeruginosa [4]) [µg/mL] | MIC (Staphylococcus aureus [5]) [µg/mL]
1 | O=C(O)C(=O)O | 48.9 | – | – | – | –
2 | O=C(O)CC(O)(CC(=O)O)C(=O)O | 42.3 | – | – | – | –
3 | O=C(O)CN(CCN(CC(=O)O)CC(=O)O)CC(=O)O | 25.8 | – | – | – | –
4 | O=C(O)[C@@H](O)[C@H](O)C(=O)O | 98.5 | – | – | – | –
5 | O=C(O)c1cn(C2CC2)c2cc(N3CCNCC3)c(F)cc2c1=O [CIPROFLOXACIN] | – | 32 (≈ 96.6 µM) | 8 (≈ 24.1 µM) | 32 (≈ 96.6 µM) | –
6 | NC[C@H]1O[C@H](O[C@H]2[C@H](O)[C@@H](O[C@H]3O[C@H](CO)[C@@H](O)[C@H](N)[C@H]3O)[C@H](N)C[C@@H]2N)[C@H](N)C[C@@H]1O [TOBRAMYCIN] | – | 8 (≈ 17.1 µM) | 4 (≈ 8.56 µM) | 16 (≈ 34.2 µM) | 4 (≈ 8.56 µM)

From ChEMBL document CHEMBL6120994, “Unravelling the potential of natural chelating agents in the control of Staphylococcus aureus and Pseudomonas aeruginosa biofilms” (Eur J Med Chem, 2025)
